Results as given in PubChem BioAssay (NCI).
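Compound exposure: 48 hours, 5 concentrations, 96-well plates. GI50 = concentration required for 50% inhibition of growth. At the TGI there is no net growth.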

Legend:
Experiment in all cases: growth of human tumour cells (NCI), 48 h
NCI-H460 lung = test system: NCI-H460 lung
HCT-116 colon = test system: HCT-116 colon
OVCAR-4 ovarian = test system: OVCAR-4 ovarian
A549 NSCLC = test system: A549 NSCLC
NCI-H522 lung = test system: NCI-H522 lung
786-0 renal = test system: 786-0 renal
IGROV1 ovarian = test system: IGROV1 ovarian
SK-OV-3 ovarian = test system: SK-OV-3 ovarian
UO-31 renal = test system: UO-31 renal
HOP-92 NSCLC = test system: HOP-92 NSCLC

Structure (SMILES)	TGI (NCI-H460 lung)	TGI (HCT-116 colon)	TGI (OVCAR-4 ovarian)	TGI (A549 NSCLC)	TGI (NCI-H522 lung)	TGI (786-0 renal)	TGI (IGROV1 ovarian)	TGI (SK-OV-3 ovarian)	TGI (UO-31 renal)	TGI (HOP-92 NSCLC)	GI50 (NCI-H460 lung)	GI50 (HCT-116 colon)	GI50 (OVCAR-4 ovarian)	GI50 (A549 NSCLC)	GI50 (NCI-H522 lung)	GI50 (786-0 renal)	GI50 (IGROV1 ovarian)	GI50 (SK-OV-3 ovarian)	GI50 (UO-31 renal)	GI50 (HOP-92 NSCLC)
C=Cc1c(C)c2cc3[nH]c(cc4nc(cc5nc(cc1[nH]2)C(C)=C5CCC(=O)N(CC)CC)C(CCC(=O)N(CC)CC)=C4C)c(C)c3C=C	> 100 µM	> 100 µM	> 100 µM	> 100 µM	> 100 µM	> 100 µM	> 100 µM	> 100 µM	> 100 µM	> 100 µM										
Oc1c(O)c(Cl)c(Cl)c(Cl)c1Cl	13.3 µM	8.75 µM	8.86 µM	24.1 µM	4.54 µM	33 µM	10.4 µM	44.5 µM	13.1 µM	7.37 µM	2.62 µM	2.88 µM	2.44 µM	4.2 µM	1.65 µM	7.98 µM	3.06 µM	16 µM	2.74 µM	2.11 µM
O=C(Oc1ccccc1)C(Br)C(Br)c1ccccc1 (stereo not given)	29.8 µM	3.54 µM	5.04 µM	38.5 µM	3.39 µM	16.8 µM	3.96 µM	29.3 µM	3.34 µM	7.52 µM	14.5 µM	1.8 µM	2.25 µM	18 µM	1.69 µM	4.59 µM	2 µM	15.9 µM	1.72 µM	2.73 µM
COc1cccc2nc3c(C(=O)NCCN(C)C)cccc3nc12	21 µM	37 µM	26.7 µM	> 100 µM	> 44.1 µM	> 84.6 µM	> 72.9 µM	> 46.4 µM	66.8 µM	28.8 µM										
C=C1C(=O)O[C@H]2[C@H]1CC/C(COC(=O)NCCc1cccc(OC)c1)=C\CC[C@@]1(C)O[C@@H]21	16.6 µM	2.08 µM	4.37 µM	21.9 µM	2.69 µM	3.07 µM	3.05 µM	27.7 µM	2.86 µM	3.96 µM	3.94 µM	0.714 µM	1.78 µM	7.28 µM	1.02 µM	1.37 µM	1.26 µM	13.6 µM	1.39 µM	1.84 µM
CCOc1ccc(C(C)=O)cc1NC(=O)c1cccc(-c2nnn(CC)n2)c1	> 100 µM	> 100 µM	> 100 µM	> 100 µM	0.971 µM	74.2 µM	> 100 µM	24.8 µM	> 100 µM	49.4 µM	0.423 µM	0.419 µM	4.96 µM	0.892 µM	0.147 µM	6.25 µM	5.7 µM	0.689 µM	1.94 µM	0.418 µM
COc1cc2c(c(OC)c1OC)-c1ccc(SC)c(=O)cc1C(CC(=O)Oc1cccc(F)c1)C2 (stereo not given)	4.62 µM	1.06 µM	> 100 µM	> 100 µM	0.241 µM	> 100 µM	> 100 µM	16.1 µM	> 100 µM	> 81.3 µM										
Nc1ccc(-c2ccc3ncc4ccc(=O)n(-c5cccc(C(F)(F)F)c5)c4c3c2)cn1	3.18 µM	1.41 µM	0.0337 µM	2.6 µM	2.03 µM	0.423 µM	0.314 µM	0.0222 µM	2.39 µM	< 0.0226 µM	< 0.01 µM	0.0135 µM	< 0.01 µM	< 0.01 µM	< 0.01 µM	< 0.01 µM	< 0.01 µM	< 0.01 µM	< 0.01 µM	< 0.01 µM
C[C@H](NC(=O)c1c(C(F)F)nn(C)c1Oc1cccc(C(F)(F)F)c1)c1ccc(C(=O)O)cc1	> 100 µM	> 100 µM	> 100 µM	> 100 µM	> 100 µM	> 100 µM	> 100 µM	> 100 µM	> 100 µM	> 100 µM	> 100 µM	> 100 µM	> 100 µM	> 100 µM	> 100 µM	> 100 µM	> 100 µM	> 100 µM	> 100 µM	6.94 µM
COc1cc2c3c(c1OC)C(=O)C=C3N(S(=O)(=O)c1ccc(C)cc1)CC2	> 100 µM	> 100 µM	> 100 µM	> 100 µM	38.6 µM	> 100 µM	> 100 µM	> 100 µM	> 100 µM	> 100 µM										
Cc1ccc(C2C(Cl)C(=O)N2NC(=O)c2ccc(N)cc2)cc1 (stereo not given)	35.5 µM	28.3 µM	> 100 µM	71.7 µM	25.6 µM	37.8 µM	25.2 µM	37.4 µM	86.5 µM	28.5 µM										
CCC[CH2][Sn]([CH2]CCC)([O]C(=O)c1cccc(F)c1F)[O]C(=O)c1cccc(F)c1F	3.24 µM	2.43 µM	3.31 µM	17.5 µM	0.277 µM	2.22 µM	2.76 µM	4.49 µM	2.92 µM	2.57 µM	1.7 µM	1.2 µM	1.86 µM	5.37 µM	0.133 µM	1.05 µM	1.4 µM	2.41 µM	1.56 µM	1.3 µM
COc1ccc2[nH]c(C(=O)OCc3ccc4cccc(O)c4n3)cc2c1	5.41 µM	1.85 µM	3.55 µM	3.92 µM	3.25 µM	3.31 µM	2.08 µM	23.2 µM	1.99 µM	1.42 µM	2.24 µM	0.39 µM	1.83 µM	1.81 µM	1.39 µM	1.68 µM	0.751 µM	11.1 µM	0.551 µM	0.209 µM
COc1ccc2c(c1)O/C(=C\c1cccc(OCC(=O)Nc3nc(C)c(C)s3)c1)C2=O	> 100 µM	> 53.3 µM	> 100 µM	6.43 µM	2.95 µM	2.08 µM	0.316 µM	> 75.3 µM	1.02 µM	3.09 µM	11.6 µM	5.53 µM	12.8 µM	2.18 µM	1.26 µM	0.715 µM	0.152 µM	25.2 µM	0.547 µM	1.32 µM
Cn1cncc1-c1c(F)cncc1NC(=O)c1c(N)nn2cc(F)cnc12	> 100 µM	16.3 µM	14.4 µM	> 100 µM	19.8 µM	> 100 µM	13.8 µM	8.92 µM	60.5 µM	69.4 µM	1.27 µM	2.07 µM	1.27 µM	2.27 µM	3.46 µM	0.338 µM	2.54 µM	0.743 µM	0.303 µM	4.43 µM
CCn1c(CSc2nc(-c3ccccc3)c(-c3ccccc3)[nH]2)n[nH]c1=S	> 100 µM	> 100 µM	> 100 µM	> 100 µM	> 100 µM	> 100 µM	> 100 µM	> 100 µM	> 100 µM	> 100 µM										
COc1ccc(-c2nsc3c2NC(=O)CC3c2cccc(Cl)c2)cc1 (stereo not given)	> 100 µM	> 100 µM	> 100 µM	> 100 µM	5.99 µM	> 100 µM	> 100 µM	> 100 µM	> 100 µM	33.6 µM	1.22 µM	0.83 µM	7.62 µM	0.987 µM	0.766 µM	9.39 µM	3.33 µM	3.31 µM	5.22 µM	1.09 µM
NC(CSC(c1ccccc1)(c1ccccc1)c1ccc(F)cc1)C(=O)O (stereo not given)	14.9 µM	> 34.6 µM	> 100 µM	> 31.7 µM	0.704 µM	> 78.9 µM	> 100 µM	24.1 µM	> 100 µM	29.3 µM	0.336 µM	0.381 µM	9.62 µM	0.35 µM	0.3 µM	2.92 µM	0.856 µM	0.348 µM	14.1 µM	0.701 µM
O=C(/C(=N/Nc1ccccc1)c1ccc([N+](=O)[O-])cc1)c1ccc([N+](=O)[O-])cc1	> 100 µM	> 100 µM	> 100 µM	> 100 µM	> 100 µM	> 100 µM	> 100 µM	> 100 µM	> 100 µM	> 100 µM										
CC(=O)O[C@H](C[C@H](C(C)C)N(C)C(=O)[C@@H](NC(=O)[C@H]1CCCCN1C)C(C)C)c1cccc(C(=O)N[C@@H](Cc2ccccc2)C[C@H](C)C(=O)O)n1	> 13.4 µM	> 8.59 µM	> 25 µM	> 25 µM	0.401 µM	> 25 µM	> 25 µM	> 25 µM	> 25 µM	> 25 µM	0.0297 µM	0.0222 µM	0.107 µM	0.0666 µM	0.0116 µM	0.0463 µM	0.0287 µM	0.0312 µM	0.33 µM	0.0183 µM
N#C/C(=C\c1ccccc1)C(NO)Nc1ccccc1 (stereo not given)	> 100 µM	> 100 µM	> 100 µM	> 100 µM	> 100 µM	> 100 µM	> 100 µM	> 100 µM	> 100 µM	> 100 µM										
O=C(N/C(=C/c1cccc([N+](=O)[O-])c1)c1nc2ccc(Cl)cc2[nH]1)c1ccccc1	51.7 µM	25.8 µM	90.5 µM	> 100 µM	39.1 µM	> 100 µM	27 µM	86.6 µM	17.2 µM	78.4 µM										
O=C(/C=C\n1cnc(-c2cc(C(F)(F)F)cc(C(F)(F)F)c2)n1)N1CC(F)(F)C1	3.07 µM	4.45 µM	4.13 µM	> 25 µM	4.47 µM	6.12 µM	8.59 µM	> 25 µM	> 25 µM	4.37 µM	0.207 µM	0.4 µM	0.224 µM	0.559 µM	0.423 µM	0.387 µM	0.978 µM	1.08 µM	0.422 µM	0.0288 µM
O=C(CN(/C=C/C(=O)C(F)(F)F)c1ccccc1)c1ccc(Cl)cc1	38.2 µM	24.5 µM	70.1 µM	77.5 µM	35.4 µM	29.1 µM	43.8 µM	> 100 µM	41.7 µM	42.1 µM	16.1 µM	12 µM	26.6 µM	21.1 µM	14.5 µM	15.3 µM	15.5 µM	36.4 µM	19.9 µM	19.1 µM
COc1ccc(-c2nn3ncccc3c2-c2ccnc(Nc3ccc4c(c3)OCCO4)n2)cc1	> 25 µM	> 25 µM	> 25 µM	> 25 µM	23 µM	> 25 µM	> 19.6 µM	> 20.8 µM	16.7 µM	10.6 µM	8.74 µM	8.16 µM	9.19 µM	8.41 µM	5.56 µM	8.38 µM	2.17 µM	4.08 µM	2.19 µM	0.521 µM
CC(C)=C1CCC(CN2CCOCC2)C1=O (stereo not given)	59 µM	15.8 µM	15.6 µM	43.1 µM	0.163 µM	11.2 µM	39.2 µM	> 100 µM	32.6 µM	8.81 µM										
S=C(CSc1ccccc1)Nc1cccc2ccccc12	> 100 µM	> 100 µM	> 100 µM	> 100 µM	> 100 µM	> 100 µM	> 100 µM	> 100 µM	> 100 µM	> 100 µM										
NCCOc1ncccc1/C=C1\c2ccccc2-c2ccc([N+](=O)[O-])cc21	0.154 µM	0.237 µM	0.827 µM	0.204 µM	0.438 µM	0.139 µM	0.728 µM	0.309 µM	0.186 µM	0.477 µM	< 0.0104 µM	0.0455 µM	0.194 µM	< 0.01 µM	0.0684 µM	0.0268 µM	0.131 µM	0.0489 µM	0.0439 µM	0.0234 µM
CCOc1ccc(N=Cc2ccnc3ccccc23)cc1	> 100 µM	54.3 µM	> 100 µM	> 100 µM	> 94.8 µM	> 100 µM	> 100 µM	> 83.3 µM	> 100 µM	> 100 µM										
